# Where a name gives a salt, the structure may show the parent alone.
# Biological target: T1, human recombinant HPK1 (Homo sapiens, UniProt Q92918)
# T1 construct: purchased BPS Bioscience
# Test: Inhibitory activity against human recombinant HPK1 (TR-FRET)
# Type: biochemical
# Details: ULight-p70S6K peptide, ATP at Km, room temperature, 1 hour, 0.32 to 1000 nM compound
# Summary of the method: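 Recombinant human HPK1 with ULight-p70S6K peptide and ATP at Km, 1 h at room temperature in HEPES pH 7.4 buffer with Mg2+, Mn2+, EGTA, DTT; compounds 0.32–1000 nM final. EDTA stop, Eu-anti-phosphopeptide TR-FRET read (665 nm); IC50 from % inhibition versus DMSO, binned A–D at 10, 50, 100 nM.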
# T1 sequence (Q92918 whole entry): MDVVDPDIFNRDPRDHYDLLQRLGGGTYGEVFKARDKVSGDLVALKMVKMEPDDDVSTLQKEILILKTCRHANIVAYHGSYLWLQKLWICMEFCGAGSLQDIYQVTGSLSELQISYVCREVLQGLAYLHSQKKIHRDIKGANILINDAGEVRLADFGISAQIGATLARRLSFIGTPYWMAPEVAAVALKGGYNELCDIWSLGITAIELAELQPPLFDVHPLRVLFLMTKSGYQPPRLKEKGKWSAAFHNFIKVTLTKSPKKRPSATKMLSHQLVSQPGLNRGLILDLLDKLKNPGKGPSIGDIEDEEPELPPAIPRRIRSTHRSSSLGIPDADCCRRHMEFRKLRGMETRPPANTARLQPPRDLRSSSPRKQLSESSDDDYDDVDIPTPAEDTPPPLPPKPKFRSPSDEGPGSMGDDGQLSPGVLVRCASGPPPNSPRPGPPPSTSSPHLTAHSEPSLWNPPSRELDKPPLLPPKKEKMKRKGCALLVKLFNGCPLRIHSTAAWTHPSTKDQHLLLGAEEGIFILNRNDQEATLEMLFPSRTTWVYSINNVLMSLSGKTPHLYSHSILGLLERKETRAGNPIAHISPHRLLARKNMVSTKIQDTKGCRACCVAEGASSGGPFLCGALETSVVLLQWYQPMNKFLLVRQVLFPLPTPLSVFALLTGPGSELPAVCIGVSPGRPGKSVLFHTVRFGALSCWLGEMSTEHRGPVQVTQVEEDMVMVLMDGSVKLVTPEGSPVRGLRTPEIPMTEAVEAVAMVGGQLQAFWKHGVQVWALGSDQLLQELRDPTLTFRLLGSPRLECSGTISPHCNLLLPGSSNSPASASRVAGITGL
row,SMILES,IC50 [nM]
1,"COc1cccc(F)c1-c1nccc(Nc2cc(N3CCC(C4(O)CC4)CC3)c(-c3cnn(C4CCOCC4)c3)cn2)n1 [Example 65, 1-(1-(2-((2-(2-fluoro-6-methoxyphenyl)pyrimidin-4-yl)amino)-5-(1-(tetrahydro-2H-pyran-4-yl)-1H-pyrazol-4-yl)pyridin-4-yl)piperidin-4-yl)cyclopropan-1-ol]",≤ 10
2,"COc1cccc(F)c1-c1nccc(Nc2cc(N3CCC[C@H](N)C3)c(-c3cnc4c(c3)OCC(=O)N4)cn2)n1 [Example 275, (S)-7-(4-(3-aminopiperidin-1-yl)-6-((2-(2-fluoro-6-methoxyphenyl)pyrimidin-4-yl)amino)pyridin-3-yl)-2H-pyrido[3,2-b][1,4]oxazin-3(4H)-one hydrochloride]",≤ 10
3,"COc1cccc(F)c1-c1nccc(Nc2cc(N3CC[C@H](OC)[C@H](N)C3)c(-c3cnn(C(F)F)c3)cn2)n1 [Example 253, N-(4-((3R,4S)-3-amino-4-methoxypiperidin-1-yl)-5-(1-(difluoromethyl)-1H-pyrazol-4-yl)pyridin-2-yl)-2-(2-fluoro-6-methoxyphenyl)pyrimidin-4-amine]",≤ 10
4,"COc1cccc(F)c1-c1nccc(Nc2cc(N3CCC(C(C)(C)CO)CC3)c(-c3cnn(C4CCOCC4)c3)cn2)n1 [Example 67, 2-(1-(2-((2-(2-fluoro-6-methoxyphenyl)pyrimidin-4-yl)amino)-5-(1-(tetrahydro-2H-pyran-4-yl)-1H-pyrazol-4-yl)pyridin-4-yl)piperidin-4-yl)-2-methylpropan-1-ol]",≤ 10
5,"COc1cccc(F)c1-c1nccc(Nc2cc(N3CCC[C@H](O)C3)c(-c3cnn(C4CC(C)(C)OC(C)(C)C4)c3)cn2)n1 [Example 264, (S)-1-(2-((2-(2-fluoro-6-methoxyphenyl)pyrimidin-4-yl)amino)-5-(1-(2,2,6,6-tetramethyltetrahydro-2H-pyran-4-yl)-1H-pyrazol-4-yl)pyridin-4-yl)piperidin-3-ol]",≤ 10
6,"COc1cccc(F)c1-c1nccc(Nc2cc(N3CC[C@@H](N)C3)c(-c3cnn(C4CCOCC4)c3)cn2)n1 [Example 96, (R)-N-(4-(3-aminopyrrolidin-1-yl)-5-(1-(tetrahydro-2H-pyran-4-yl)-1H-pyrazol-4-yl)pyridin-2-yl)-2-(2-fluoro-6-methoxyphenyl)pyrimidin-4-amine hydrochloride]",≤ 10
7,"COc1cccc(F)c1-c1nccc(Nc2cc(N3CCC4(CCNCC4)C3)c(-c3cnn(C4CCOCC4)c3)cn2)n1 [Example 93, N-(4-(2,8-diazaspiro[4.5]decan-2-yl)-5-(1-(tetrahydro-2H-pyran-4-yl)-1H-pyrazol-4-yl)pyridin-2-yl)-2-(2-fluoro-6-methoxyphenyl)pyrimidin-4-amine hydrochloride]",10 to 50
8,"COc1cccc(F)c1-c1nccc(Nc2cc(N3CCC4(CCN(C)C4)CC3)c(-c3ccc(N4CCOCC4)nc3)cn2)n1 [Example 137, N-(2-(2-fluoro-6-methoxyphenyl)pyrimidin-4-yl)-4-(2-methyl-2,8-diazaspiro[4.5]decan-8-yl)-6′-morpholino-[3,3′-bipyridin]-6-amine]",≤ 10
9,"COc1cccc(F)c1-c1nccc(Nc2cc(N3CCC[C@H](O)C3)c(-c3ccc(C(=O)N4CCN(C)CC4)nc3)cn2)n1 [Example 36, (S)-(6′-((2-(2-fluoro-6-methoxyphenyl)pyrimidin-4-yl)amino)-4′-(3-hydroxypiperidin-1-yl)-[3,3′-bipyridin]-6-yl)(4-methylpiperazin-1-yl)methanone]",≤ 10
10,"COc1cccc(F)c1-c1nccc(Nc2cc(N3CCC[C@H](O)C3)c(-c3ccc4nccn4c3)cn2)n1 [Example 61, (S)-1-(2-((2-(2-fluoro-6-methoxyphenyl)pyrimidin-4-yl)amino)-5-(imidazo[1,2-a]pyridin-6-yl)pyridin-4-yl)piperidin-3-ol]",10 to 50
11,"COc1cccc(F)c1-c1nccc(Nc2cc(N3CCC[C@H](N)C3)c(-c3ccc(C4CCN(C)CC4)nc3)cn2)n1 [Example 83, (S)-4-(3-aminopiperidin-1-yl)-N-(2-(2-fluoro-6-methoxyphenyl)pyrimidin-4-yl)-6′-(1-methylpiperidin-4-yl)-[3,3′-bipyridin]-6-amine hydrochloride]",≤ 10
12,"COc1cccc(F)c1-c1nccc(Nc2cc(N3CCC[C@H](N)C3)c(-c3cc(C)c4c(c3)CCC(=O)N4)cn2)n1 [Example 262, (S)-6-(4-(3-aminopiperidin-1-yl)-6-((2-(2-fluoro-6-methoxyphenyl)pyrimidin-4-yl)amino)pyridin-3-yl)-8-methyl-3,4-dihydroquinolin-2(1H)-one hydrochloride]",≤ 10
13,"COc1cccc(F)c1-c1nc(Nc2cc(N3CCC[C@H](O)C3)c(C#CC3CCOCC3)cn2)ccc1C(N)=O [Example 140, 2-(2-fluoro-6-methoxyphenyl)-6-((4-((S)-3-hydroxypiperidin-1-yl)-5-((tetrahydro-2H-pyran-4-yl)ethynyl)pyridin-2-yl)amino)nicotinamide]",≤ 10
14,"COc1cccc(F)c1-c1nccc(Nc2cc(N3CCC[C@H](O)C3)c(-c3ccc(CN4CC[C@H](F)C4)nc3)cn2)n1 [Example 39, (S)-1-(6-((2-(2-fluoro-6-methoxyphenyl)pyrimidin-4-yl)amino)-6′-(((S)-3-fluoropyrrolidin-1-yl)methyl)-[3,3′-bipyridin]-4-yl)piperidin-3-ol]",≤ 10
15,"COC(=O)c1ccc(Nc2cc(N3CCC[C@H](N)C3)c(-c3cnn(C4CCOCC4)c3)cn2)nc1-c1c(F)cccc1OC [Example 71, methyl 6-((4-((S)-3-aminopiperidin-1-yl)-5-(1-(tetrahydro-2H-pyran-4-yl)-1H-pyrazol-4-yl)pyridin-2-yl)amino)-2-(2-fluoro-6-methoxyphenyl)nicotinate hydrochloride]",≤ 10
16,"COc1cccc(F)c1-c1nccc(Nc2cc(N3CCC[C@H](N)C3)c(-c3ccc(N4CCCCC4)nc3)cn2)n1 [Example 120, (S)-4-(3-aminopiperidin-1-yl)-N-(2-(2-fluoro-6-methoxyphenyl)pyrimidin-4-yl)-6′-(piperidin-1-yl)-[3,3′-bipyridin]-6-amine hydrochloride]",≤ 10
17,"N[C@H]1CCCN(c2cc(Nc3ccnc(-c4c(F)cccc4CO)n3)ncc2C#Cc2cnn(C(F)F)c2)C1 [Example 243, (S)-(2-(4-((4-(3-aminopiperidin-1-yl)-5-((1-(difluoromethyl)-1H-pyrazol-4-yl)ethynyl)pyridin-2-yl)amino)pyrimidin-2-yl)-3-fluorophenyl)methanol hydrochloride]",≤ 10

# Now from value to compound:
row,IC50 [nM],SMILES
1,≤ 10,"COc1cccc(F)c1-c1nc(Nc2cc(N3CC[C@H](F)[C@H](N)C3)c(-c3cnn(C(F)F)c3)cn2)ccc1C#N [Example 322, 6-((4-((3R,4S)-3-amino-4-fluoropiperidin-1-yl)-5-(1-(difluoromethyl)-1H-pyrazol-4-yl)pyridin-2-yl)amino)-2-(2-fluoro-6-methoxyphenyl)nicotinonitrile hydrochloride]"
2,≤ 10,"COc1cc(F)cc(F)c1-c1nc(Nc2cc(N3CCC[C@H](O)C3)c(-c3cnn(CC(F)F)c3)cn2)ccc1[N+](=O)[O-] [Example 223, (3S)-1-(2-((6-(2,4-difluoro-6-methoxyphenyl)-5-nitropyridin-2-yl)amino)-5-(1-(2,2-difluoroethyl)-1H-pyrazol-4-yl)pyridin-4-yl)piperidin-3-ol]"
3,≤ 10,"COCCn1cc(-c2cnc(Nc3ccc(C(N)=O)c(-c4c(F)cccc4OC)n3)cc2N2CCC[C@H](O)C2)cn1 [Example 144, 2-(2-fluoro-6-methoxyphenyl)-6-((4-((S)-3-hydroxypiperidin-1-yl)-5-(1-(2-methoxyethyl)-1H-pyrazol-4-yl)pyridin-2-yl)amino)nicotinamide]"
4,≤ 10,"COc1cccc(F)c1-c1nc(Nc2cc(N3CCC[C@H](N)C3)c(-c3cnn(C(F)F)c3)cn2)ccc1F [Example 76, 4-((S)-3-aminopiperidin-1-yl)-5-(1-(difluoromethyl)-1H-pyrazol-4-yl)-N-(5-fluoro-6-(2-fluoro-6-methoxyphenyl)pyridin-2-yl)pyridin-2-amine hydrochloride]"
5,≤ 10,"COc1cc(F)cc(F)c1-c1nccc(Nc2cc(N3CC[C@@H](O)[C@H](N)C3)c(-c3cnn(C(F)F)c3)cn2)n1 [Example 213, (3R,4R)-3-amino-1-(2-((2-(2,4-difluoro-6-methoxyphenyl)pyrimidin-4-yl)amino)-5-(1-(difluoromethyl)-1H-pyrazol-4-yl)pyridin-4-yl)piperidin-4-ol hydrochloride]"
6,≤ 10,"COc1cc(F)cc(F)c1-c1nccc(Nc2cc(N3C[C@@H](N)C[C@@H](F)C3)c(-c3cnn(CC(F)(F)F)c3)cn2)n1 [Example 324, N-(4-((3S,5R)-3-amino-5-fluoropiperidin-1-yl)-5-(2-(2,2,2-trifluoroethyl)-1H-pyrazol-4-yl)pyridin-2-yl)-2-(2,4-difluoro-6-methoxyphenyl)pyrimidin-4-amine]"
7,≤ 10,"COc1cccc(F)c1-c1nccc(Nc2cc(N3CCC[C@H](O)C3)c(-c3cnn(C(C)C)c3)cn2)n1 [Example 13, (S)-1-(2-((2-(2-fluoro-6-methoxyphenyl)pyrimidin-4-yl)amino)-5-(1-isopropyl-1H-pyrazol-4-yl)pyridin-4-yl)piperidin-3-ol]"
8,≤ 10,"COc1cccc(F)c1-c1nccc(Nc2cc(N3CCC[C@H](N)C3)c(-c3cnn(CCC(N)=O)c3)cn2)n1 [Example 167, (S)-3-(4-(4-(3-aminopiperidin-1-yl)-6-((2-(2-fluoro-6-methoxyphenyl)pyrimidin-4-yl)amino)pyridin-3-yl)-1H-pyrazol-1-yl)propanamide hydrochloride]"
9,≤ 10,"COc1cccc(F)c1-c1nc(Nc2cc(N3CC[C@@H](F)[C@H](N)C3)c(-c3cnn(C(F)F)c3)cn2)ccc1C#N [Example 321, 6-((4-((3R,4R)-3-amino-4-fluoropiperidin-1-yl)-5-(1-(difluoromethyl)-1H-pyrazol-4-yl)pyridin-2-yl)amino)-2-(2-fluoro-6-methoxyphenyl)nicotinonitrile hydrochloride]"
